Measurements as given in PubChem BioAssay AID192 (DTP/NCI, 2004).
Where “and” joins values, the source holds several entries; their conditions need not be identical. Identical values can stand only once. Inconclusive results and toxic doses are left out.

System: BDF1 mice, B16 melanoma ip, median survival T/C
Assay: NCI In Vivo Anticancer Drug Screen. Data for tumor model B16 Melanoma (intraperitoneal) in B6D2F1 (BDF1) mice
Details: endpoint: median survival time, higher = longer survival
Method in brief: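 Vehicle-treated animals serve as the reference (C); treated animals (T) are scored for survival or tumor size after tumor transplantation.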

[1] = dose: 200.0 mg/kg/injection, schedule: Q01DX009 (ip), vehicle: saline
[2] = dose: 50.0 mg/kg/injection, schedule: Q01DX009 (ip), vehicle: Klucel (hydroxypropylcellulose) (HPC)
[3] = dose: 100.0 mg/kg/injection, schedule: Q01DX009 (ip), vehicle: Klucel (hydroxypropylcellulose) (HPC)
[4] = dose: 200.0 mg/kg/injection, schedule: Q01DX009 (ip), vehicle: Klucel (hydroxypropylcellulose) (HPC)
[5] = dose: 25.0 mg/kg/injection, schedule: Q01DX009 (ip), vehicle: Klucel (hydroxypropylcellulose) (HPC)
[6] = dose: 25.0 mg/kg/injection, schedule: Q01DX009 (ip), vehicle: saline
[7] = dose: 50.0 mg/kg/injection, schedule: Q01DX009 (ip), vehicle: saline
[8] = dose: 100.0 mg/kg/injection, schedule: Q01DX009 (ip), vehicle: saline

COc1ccc(NC(=O)Nc2ccc(OC)cc2)cc1
T/C [1]: 120 % of control | T/C (dose: 400.0 mg/kg/injection, schedule: Q01DX009 (ip), vehicle: saline): 116 % of control

COc1cccc2c1C(=O)c1c(O)c3c(c(O)c1C2=O)C[C@@](O)(C(=O)COC(=O)CCCCC(=O)O)C[C@@H]3OC1CC(NC(=O)C(F)(F)F)C(O)C(C)O1 (stereo not given in full)
T/C (dose: 18.75 mg/kg/injection, schedule: Q01DX001 (ip), vehicle: other): 175 % of control | T/C (dose: 37.5 mg/kg/injection, schedule: Q01DX001 (ip), vehicle: other): 168 % of control and 205 % of control | T/C (dose: 75.0 mg/kg/injection, schedule: Q01DX001 (ip), vehicle: other): 205 % of control and 271 % of control | T/C (dose: 150.0 mg/kg/injection, schedule: Q01DX001 (ip), vehicle: other): 150 % of control

CC#CCOCC(CCl)OC(=O)Nc1ccccc1 (stereo not given)
T/C (dose: 100.0 mg/kg/injection, schedule: Q04DX003 (ip), vehicle: saline with Tween-80): 93 % of control | T/C (dose: 200.0 mg/kg/injection, schedule: Q04DX003 (ip), vehicle: saline with Tween-80): 97 % of control | T/C (dose: 400.0 mg/kg/injection, schedule: Q04DX003 (ip), vehicle: saline with Tween-80): 90 % of control

CC[C@@H]1C[C@@H]2CN3CCc4c([nH]c5ccc(OC)cc45)C(C(=O)OC)(C2)C13
T/C [2]: 102 % of control | T/C [3]: 106 % of control | T/C [4]: 111 % of control

CCCCC1CCCCCCc2[nH]c(/C=C3\N=C(c4ccc[nH]4)C=C3OC)cc21 (stereo not given)
T/C (dose: 62.0 micrograms/kg/injection, schedule: Q01DX009 (ip), vehicle: saline with Tween-80): 106 % of control | T/C (dose: 125.0 micrograms/kg/injection, schedule: Q01DX009 (ip), vehicle: saline with Tween-80): 96 % of control | T/C (dose: 250.0 micrograms/kg/injection, schedule: Q01DX009 (ip), vehicle: saline with Tween-80): 92 % of control | T/C (dose: 500.0 micrograms/kg/injection, schedule: Q01DX009 (ip), vehicle: saline with Tween-80): 103 % of control

CCCCOC(=O)C(C)OC(=O)CCC (stereo not given)
T/C [5]: 112 % of control | T/C [2]: 108 % of control | T/C [3]: 104 % of control | T/C [4]: 122 % of control

COCCCN1CCN(c2ccccc2OC)CC1
T/C [6]: 101 % of control | T/C [7]: 92 % of control

CN(C)N=Nc1ccc(C(=O)O)cc1
T/C [6]: 113 % of control | T/C [7]: 119 % of control

O=C(O)CCCC1CCCCC1.[Cu+2]
T/C (dose: 6.25 mg/kg/injection, schedule: Q01DX009 (ip), vehicle: saline with Tween-80): 100 % of control | T/C (dose: 12.5 mg/kg/injection, schedule: Q01DX009 (ip), vehicle: saline with Tween-80): 97 % of control

COc1cc(/C=C/C(N)=O)cc(OC)c1OC
T/C [6]: 107 % of control | T/C [8]: 94 % of control | T/C [1]: 102 % of control

CCN1/C(=C/C=C/C=C/c2sc3ccccc3[n+]2CC)Sc2ccccc21
T/C (dose: 0.01 mg/kg/injection, schedule: Q01DX009 (ip), vehicle: saline): 100 % of control | T/C (dose: 0.02 mg/kg/injection, schedule: Q01DX009 (ip), vehicle: saline): 98 % of control | T/C (dose: 0.05 mg/kg/injection, schedule: Q01DX009 (ip), vehicle: saline): 93 % of control | T/C (dose: 0.1 mg/kg/injection, schedule: Q01DX009 (ip), vehicle: saline): 98 % of control | T/C (dose: 0.2 mg/kg/injection, schedule: Q01DX009 (ip), vehicle: saline): 100 % of control

Cc1[nH]c(=S)sc1C
T/C [6]: 102 % of control | T/C [7]: 91 % of control | T/C [8]: 102 % of control

O=c1c(O)c(-c2ccccc2)oc2ccccc12
T/C (dose: 100.0 mg/kg/injection, schedule: Q01DX009 (ip), vehicle: saline with Tween-80): 94 % of control | T/C (dose: 200.0 mg/kg/injection, schedule: Q01DX009 (ip), vehicle: saline with Tween-80): 96 % of control | T/C (dose: 400.0 mg/kg/injection, schedule: Q01DX009 (ip), vehicle: saline with Tween-80): 91 % of control | T/C (dose: 800.0 mg/kg/injection, schedule: Q01DX009 (ip), vehicle: saline with Tween-80): 93 % of control

CNC(=O)Nc1ccccc1C(=O)NN
T/C [5]: 106 % of control | T/C [2]: 100 % of control | T/C [3]: 100 % of control | T/C [4]: 97 % of control

C=CCN(CC=C)P(=O)(N1CC1)N1CC1C (stereo not given)
T/C (dose: 0.36 mg/kg/injection, schedule: Q01DX009 (ip), vehicle: saline): 112 % of control | T/C (dose: 0.5 mg/kg/injection, schedule: Q01DX009 (ip), vehicle: saline): 110 % of control | T/C (dose: 0.83 mg/kg/injection, schedule: Q01DX009 (ip), vehicle: saline): 116 % of control | T/C (dose: 1.25 mg/kg/injection, schedule: Q01DX009 (ip), vehicle: saline): 114 % of control | T/C (dose: 1.8 mg/kg/injection, schedule: Q01DX009 (ip), vehicle: saline): 99 % of control
